Measured values published in ChEMBL document CHEMBL1201862, “PubChem BioAssay data set” (2004).
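Exposure lasted 48 hours, with cells grown in 96-well plates and compounds tested at five concentrations. At the GI50, growth is halved.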 The source made the active and inactive calls. Rule as the data show it: active = GI50 up to about 1.1 µM and inactive = higher.

Columns and labels:
Experiment in all cases: NCI tumour cell line growth inhibition, 48 h
[1] = tested on: 786-0
[2] = tested on: A549
[3] = tested on: ACHN
[4] = tested on: CAKI-1
[5] = tested on: HOP-92
[6] = tested on: HT-29
[7] = tested on: IGROV-1
[8] = tested on: K562
[9] = tested on: MDA-N
[10] = tested on: Malme-3M
[11] = tested on: NCI-H23
[12] = tested on: NCI/ADR-RES
[13] = tested on: RPMI-8226
[14] = tested on: SF-295
[15] = tested on: SK-MEL-2
[16] = tested on: SK-MEL-5
[17] = tested on: TK-10
[18] = tested on: UACC-62
[19] = tested on: RXF 393
[20] = tested on: HCC 2998

SMILES | GI50 [1] | GI50 [2] | GI50 [3] | GI50 [4] | GI50 [5] | GI50 [6] | GI50 [7] | GI50 [8] | GI50 [9] | GI50 [10] | GI50 [11] | GI50 [12] | GI50 [13] | GI50 [14] | GI50 [15] | GI50 [16] | GI50 [17] | GI50 [18] | GI50 [19] | GI50 [20]
COc1ccc2c3c1O[C@H]1C(O)CCC4(O)[C@@H](C2)NCC[C@]314 (stereo not given in full) | > 100 µM (inactive) | > 100 µM (inactive) | > 100 µM (inactive) | > 100 µM (inactive) | > 100 µM (inactive) | > 100 µM (inactive) | > 100 µM (inactive) | > 100 µM (inactive) | > 100 µM (inactive) | > 100 µM (inactive) | > 100 µM (inactive) | > 100 µM (inactive) | > 100 µM (inactive) | > 100 µM (inactive) | > 100 µM (inactive) | > 100 µM (inactive) | > 100 µM (inactive) | > 100 µM (inactive) |  | 
CC(=O)CCC1(C(=O)OCC(C)C)CCCC1=O (stereo not given) | > 100 µM (inactive) | > 100 µM (inactive) | > 100 µM (inactive) | > 100 µM (inactive) | 90.6 µM (inactive) | > 100 µM (inactive) | > 100 µM (inactive) | > 100 µM (inactive) | > 100 µM (inactive) | > 100 µM (inactive) | > 100 µM (inactive) | > 100 µM (inactive) |  | > 100 µM (inactive) | > 100 µM (inactive) | > 100 µM (inactive) | > 100 µM (inactive) | > 100 µM (inactive) | > 100 µM (inactive) | 
CC(=O)OCC1OC(O[C@H]2C=C[C@@H](C(=O)OCc3ccccc3)n3c(=O)n(-c4ccccc4)c(=O)n32)C(OC(C)=O)C(OC(C)=O)C1OC(C)=O (stereo not given in full) | 1.6 µM (inactive) | 17.2 µM (inactive) | 1.71 µM (inactive) | 1.48 µM (inactive) | 1.96 µM (inactive) | 1.56 µM (inactive) | 2.34 µM (inactive) | 1.63 µM (inactive) | 2.77 µM (inactive) |  | 2.96 µM (inactive) | 3.2 µM (inactive) | 0.879 µM (active) | 10.6 µM (inactive) | 4.66 µM (inactive) | 1.14 µM (inactive) | 2.02 µM (inactive) | 1.59 µM (inactive) | 2.24 µM (inactive) | 1.73 µM (inactive)
N#Cc1c(-c2ccccc2)cc(Nc2cccc(C(F)(F)F)c2)n2c1nc1ccccc12 | 1.54 µM (inactive) |  | 1.88 µM (inactive) | 1.91 µM (inactive) | 0.206 µM (active) | 1.16 µM (inactive) |  |  | 1.4 µM (inactive) | 1.27 µM (inactive) | 0.336 µM (active) | 1.33 µM (inactive) | 0.237 µM (active) | 1.7 µM (inactive) |  | 0.548 µM (active) | 2.56 µM (inactive) |  | 1.99 µM (inactive) | 
COc1cc2c[n+](C)c3c(c2cc1OC)Cc1cc2c(cc1-3)OCO2 | > 100 µM (inactive) | > 100 µM (inactive) |  | > 100 µM (inactive) | > 100 µM (inactive) | > 100 µM (inactive) | > 100 µM (inactive) | > 100 µM (inactive) | > 100 µM (inactive) | > 100 µM (inactive) | > 100 µM (inactive) | > 100 µM (inactive) | 65 µM (inactive) | > 100 µM (inactive) | > 100 µM (inactive) | > 100 µM (inactive) | > 100 µM (inactive) | > 100 µM (inactive) |  | 
O=C(O)C1[C@@H](C(=O)O)C1(Br)CBr (stereo not given in full) | > 100 µM (inactive) | > 100 µM (inactive) | > 100 µM (inactive) | > 100 µM (inactive) | > 100 µM (inactive) | > 100 µM (inactive) | > 100 µM (inactive) | > 100 µM (inactive) | > 100 µM (inactive) |  | > 100 µM (inactive) | > 100 µM (inactive) | > 100 µM (inactive) | > 100 µM (inactive) | > 100 µM (inactive) | > 100 µM (inactive) | > 100 µM (inactive) | > 100 µM (inactive) | > 100 µM (inactive) | > 100 µM (inactive)
